Results reported in patent US20040229379A1, “Assay” (priority 2003, published 2004).

Test system: PDHK
Assay: Binding affinity of fluorescent binder structures for PDHK

Cc1cc(C)n2c1C=C1C=CC(CCC(=O)NCc3ccc(C(=O)N4C[C@H](C)N(C(=O)[C@@](C)(O)C(F)(F)F)C[C@H]4C)cc3)=[N+]1[B-]2(F)F [(IV)]
binding affinity for PDHK relative to (III/IIIA): lower binding affinity for PDHK than (III/IIIA)
